Like-named read-outs stand apart in the source and are kept apart here.
Columns and labels:
TAS2R16 [1] = target: T1, TAS2R16 (Homo sapiens, UniProt Q9NYV7); test: Fluo4-AM calcium imaging; format: cell-based
T1 sequence (Q9NYV7 1-291): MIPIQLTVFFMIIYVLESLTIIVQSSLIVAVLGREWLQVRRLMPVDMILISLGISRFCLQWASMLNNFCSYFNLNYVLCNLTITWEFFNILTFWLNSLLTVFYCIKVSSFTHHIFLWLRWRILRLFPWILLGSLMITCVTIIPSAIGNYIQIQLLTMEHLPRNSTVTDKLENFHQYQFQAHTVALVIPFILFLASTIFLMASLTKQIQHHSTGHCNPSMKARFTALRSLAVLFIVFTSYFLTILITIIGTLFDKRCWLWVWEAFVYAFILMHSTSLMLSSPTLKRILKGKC

TAS2R16 [2] = target: T1, TAS2R16; test: Fluo4-AM calcium imaging; format: cell-based; conditions: agonist; C1 buffer with or without NaCl ([…] NMDG), pH […]

Row | EC50 (TAS2R16 [1]) [mM] | SMILES | EC50 (TAS2R16 [2])
1 | 1.28 ± 0.18 | OCc1ccccc1O[C@@H]1O[C@H](CO)[C@@H](O)[C@H](O)[C@H]1O [D-salicin] | 
2 |  | O=Cc1ccccc1O[C@@H]1O[C@H](CO)[C@@H](O)[C@H](O)[C@H]1O [Helicin] | signal saturation of TAS2R16 was achieved with phenyl-βD-glucopyranoside and helicin
3 |  | OC[C@H]1O[C@@H](Oc2ccccc2)[C@H](O)[C@@H](O)[C@@H]1O [phenyl-βD-glucopyranoside] | signal saturation of TAS2R16 was achieved with phenyl-βD-glucopyranoside and helicin

Reference: paper PMC11082923 (Journal of Agricultural and Food Chemistry, 2024)
